Among the data in article PMC3044726, “Identification of Human IKK-2 Inhibitors of Natural Origin (Part I): Modeling of the IKK-2 Kinase Domain, Virtual Screening and Activity Assays” (PLoS ONE, 2011) are IC50 values, retold here.

In general, IC50 refers to the point on the concentration scale where inhibition reaches its midpoint.

For the test, the target named is T1, hIKK-2 (Homo sapiens, UniProt O14920).
T1 construct: gene IKBKB
T1 sequence (O14920 1-756): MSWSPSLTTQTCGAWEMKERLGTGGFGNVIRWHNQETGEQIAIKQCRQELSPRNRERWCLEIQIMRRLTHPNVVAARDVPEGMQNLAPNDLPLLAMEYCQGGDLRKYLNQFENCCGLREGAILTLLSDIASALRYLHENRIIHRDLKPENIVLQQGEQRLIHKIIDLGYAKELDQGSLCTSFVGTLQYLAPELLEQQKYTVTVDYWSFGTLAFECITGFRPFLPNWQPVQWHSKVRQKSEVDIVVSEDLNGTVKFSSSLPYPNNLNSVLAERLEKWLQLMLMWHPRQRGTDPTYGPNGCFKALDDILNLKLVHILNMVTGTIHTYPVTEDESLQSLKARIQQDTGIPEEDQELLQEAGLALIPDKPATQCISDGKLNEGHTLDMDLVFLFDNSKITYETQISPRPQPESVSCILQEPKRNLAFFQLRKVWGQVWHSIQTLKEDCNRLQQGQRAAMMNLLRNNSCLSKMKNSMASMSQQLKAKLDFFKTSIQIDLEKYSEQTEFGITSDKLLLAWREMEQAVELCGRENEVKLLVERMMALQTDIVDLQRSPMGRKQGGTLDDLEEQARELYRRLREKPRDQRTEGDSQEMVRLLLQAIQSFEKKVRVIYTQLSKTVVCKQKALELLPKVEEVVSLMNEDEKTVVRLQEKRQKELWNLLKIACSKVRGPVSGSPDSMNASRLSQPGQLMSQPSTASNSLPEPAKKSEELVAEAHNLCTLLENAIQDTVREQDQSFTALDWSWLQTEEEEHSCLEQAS
In words: K-LISA IKKβ ELISA kinase assay with GST-IκBα substrate. The format is biochemical.

SMILES strings stand for the structures. Read-outs that look alike come from different tables or passages of the source.

In the case of `CCOc1ccc2nc3cc(N)ccc3c(N)c2c1` [ZINC03871389, ethacridine], for the setting “read-out: IC50”, the IC50 was determined as 0.184 mM. For the compound `COCc1c(CN)cnc(C)c1N` [ZINC03683886], the IC50 was determined as 2.07 mM. For the compound `OC[C@@H]1CCCN2CCCC[C@H]12` [ZINC01669260, lupinine], the IC50 (read-out: IC50) was 3.32 mM.
